Earlier results as cited in paper PMC2593936 (Bioorganic & medicinal chemistry, 2008).
Marks after values point to notes of the source that are not given here.

Target: T1, human A3AR (Homo sapiens, UniProt P0DMS8)
T1 sequence (P0DMS8 1-318): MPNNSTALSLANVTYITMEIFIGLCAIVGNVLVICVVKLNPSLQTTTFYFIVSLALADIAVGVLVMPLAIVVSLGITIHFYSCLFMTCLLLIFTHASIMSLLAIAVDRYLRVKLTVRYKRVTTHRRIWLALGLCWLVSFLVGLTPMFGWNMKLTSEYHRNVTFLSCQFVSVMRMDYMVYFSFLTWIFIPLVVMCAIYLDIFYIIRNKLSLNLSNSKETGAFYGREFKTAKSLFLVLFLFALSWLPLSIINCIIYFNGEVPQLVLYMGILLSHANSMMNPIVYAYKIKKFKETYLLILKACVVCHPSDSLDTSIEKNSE
Details: relative to full agonist NECA at 10 μM

- %Efficacy A3: 100 ^c %
Structure (SMILES): CNC(=O)[C@@]12C[C@@H]1[C@@H](n1cnc3c(NCc4cccc(I)c4)nc(Cl)nc31)[C@H](O)[C@@H]2O [Compound 7]
